Experimental data from patent US8124626B2, “Methods of treating inflammations and infections with pyridinium salts” (Mycosol, Inc., priority 2007, dated 2012).

Columns and labels:
Streptococcus pyogenes = conditions: Mueller-Hinton agar, 24 hours at 35° C.
Streptococcus faecalis = conditions: Mueller-Hinton agar, 24 hours at 35° C.
Streptococcus algalactia = conditions: Mueller-Hinton agar, 24 hours at 35° C.
Staphylococcus aureus = conditions: Mueller-Hinton agar, 24 hours at 35° C.
Bordella bronchiseptica = conditions: Mueller-Hinton agar, 24 hours at 35° C.
Vibrio cholerae = conditions: Mueller-Hinton agar, 24 hours at 35° C.
Pasturella multocida = conditions: Mueller-Hinton agar, 24 hours at 35° C.
E. coli = conditions: Mueller-Hinton agar, 24 hours at 35° C.
Pseudomonas aerugenosa = conditions: Mueller-Hinton agar, 24 hours at 35° C.
Candida albicans = conditions: Mueller-Hinton agar, 24 hours at 35° C.
Candida tropicalis = conditions: Mueller-Hinton agar, 24 hours at 35° C.
Cryptococcus neoformans = conditions: Mueller-Hinton agar, 24 hours at 35° C.
Saccharomyces cervisciae = conditions: Mueller-Hinton agar, 24 hours at 35° C.
Aspergillus fumigatus = conditions: Mueller-Hinton agar, 24 hours at 35° C.
Aspergillus flavus = conditions: Mueller-Hinton agar, 24 hours at 35° C.
Fusarium solani = conditions: Mueller-Hinton agar, 24 hours at 35° C.
Rhizopus arrihizus = conditions: Mueller-Hinton agar, 24 hours at 35° C.
Microsporidium canis = conditions: Mueller-Hinton agar, 24 hours at 35° C.
Microsporidium gypseum = conditions: Mueller-Hinton agar, 24 hours at 35° C.
Trichophyton equinium = conditions: Mueller-Hinton agar, 24 hours at 35° C.
[1] = system: Trichophyton mentagrophyt; conditions: Mueller-Hinton agar, 24 hours at 35° C.
Trichophyton rubrum = conditions: Mueller-Hinton agar, 24 hours at 35° C.
Epidermophyton floccsum = conditions: Mueller-Hinton agar, 24 hours at 35° C.
[2] = as compared to the iodide salt
Botrytis cinerea = assay: Plant relevant mold panel, microtiter growth inhibition; type: cell-based; conditions: Plant relevance: Vegetable; 18° C. for 7 days, optical density 405 nm
[3] = system: Colletotrichum lagenarium; assay: as above; type: cell-based; conditions: Plant relevance: Mellons; 18° C. for 7 days, optical density 405 nm
Pyrenophora teres = assay: as above; type: cell-based; conditions: Plant relevance: Barley; 18° C. for 7 days, optical density 405 nm
Rhizoctonia solani = assay: as above; type: cell-based; conditions: Plant relevance: Rice Sheath; 18° C. for 7 days, optical density 405 nm
Septonia tritici = assay: as above; type: cell-based; conditions: Plant relevance: Wheat Leaf; 18° C. for 7 days, optical density 405 nm
Phytophthora infestans = conditions: Plant relevance: Tomato; 18° C. for 7 days, optical density 405 nm
Pyricularia oryzae = conditions: Plant relevance: Rice; 18° C. for 7 days, optical density 405 nm
[4] = system: roundworms, threadworms, and whipworms; conditions: reported; U.S. Pat. No. 3,075,975 and 3,085,935; cited from earlier work

## 1-Ethyl-(E,E)-2,6-bis[2-[4-(pyrrolidinyl)phenyl]ethenyl]pyridinium Chloride [formula I]
Streptococcus pyogenes
  MIC: 1.0 µg/mL
Streptococcus faecalis
  MIC: 1.0 µg/mL
Streptococcus algalactia
  MIC: 1.0 µg/mL
Staphylococcus aureus
  MIC: 0.3 µg/mL
Bordella bronchiseptica
  MIC: 1.0 µg/mL
Vibrio cholerae
  MIC: 10.0 µg/mL
Pasturella multocida
  MIC: 3.0 µg/mL
E. coli
  MIC: >100 µg/mL
Pseudomonas aerugenosa
  MIC: >100 µg/mL
Candida albicans
  MIC: <0.006 µg/mL
Candida tropicalis
  MIC: <0.4 µg/mL
Cryptococcus neoformans
  MIC: <0.4 µg/mL
Saccharomyces cervisciae
  MIC: <0.4 µg/mL
Aspergillus fumigatus
  MIC: <0.006 µg/mL
Aspergillus flavus
  MIC: 6.25 µg/mL
Fusarium solani
  MIC: <0.4 µg/mL
Rhizopus arrihizus
  MIC: 6.25 µg/mL
Microsporidium canis
  MIC: 1.6 µg/mL
Microsporidium gypseum
  MIC: 1.6 µg/mL
Trichophyton equinium
  MIC: 1.6 µg/mL
[1]
  MIC: 1.6 µg/mL
Trichophyton rubrum
  MIC: 1.6 µg/mL
Epidermophyton floccsum
  MIC: 1.6 µg/mL
[2]
  stability: increased stability

## CC[n+]1c(/C=C/c2ccc(N3CCCC3)cc2)cccc1/C=C/c1ccc(N2CCCC2)cc1.[I-] [Stilbazium iodide]
Botrytis cinerea
  IC90: 0.5 ppm a.i.
[3]
  IC90: 31 ppm a.i.
Pyrenophora teres
  IC90: 31 ppm a.i.
Rhizoctonia solani
  IC90: 2 ppm a.i.
Septonia tritici
  IC90: 2 ppm a.i.
Phytophthora infestans
  IC90: 2 ppm a.i.
Pyricularia oryzae
  IC90: 8 ppm a.i.
[4]
  anthelmintic effectiveness: effective against roundworms, threadworms, and whipworms
